# “Also recorded” adds a separate entry of the source.
# Experiments:
# [1] = molecular target: T1, TRPV1 (Rattus norvegicus, UniProt O35433); design: host or cells: living rats (sensory neurons), TNBS chronic pancreatitis model; conditions: systemic administration, chronic pancreatitis; cited from earlier work
# [2] = system: nociceptors; conditions: functional denervation of the pancreas; cited from earlier work
# [3] = system: transient receptor potential vanilloid type-1 on gastric branches of dichotomous gastropancreatic nerves; assay: Pancreatic edema (water content) after intragastric infusion with pyloric ligation; type: in vivo; conditions: intragastric infusion of 1.2 ml of 1.6 μM after pyloric ligation; pancreas harvested 30 minutes later
# Experimental: Capsaicin was infused into the stomach after pyloric ligation and 30 minutes later the pancreas was harvested and water content was measured.
# Next, the functional correlate of this anatomical convergence was determined. It was hypothesized that intragastric capsaicin will activate transient receptor potential vanilloid type-1 on gastric branches of dichotomous gastropancreatic nerves and via an axonal reflex result in edema of the pancreas. After pyloric ligation, intragastric infusion of 1.2 ml of 1.6 μM capsaicin was followed 30 minutes later by harvesting of the pancreas and measurement of water content.
# [4] = molecular target: T2, TRPV1 (Mus musculus, UniProt Q704Y3); conditions: mice, cited from earlier work
# T2 construct: capsazepine, a selective TRPV1 antagonist, can reduce cerulein-induced pancreatitis in mice; host or cells: living mice, cerulein-induced pancreatitis
# [5] = system: guinea pig bronchi; conditions: ex-vivo; sensitive to TRPV1 and tachykinin receptor blockade; cited from earlier work
# [6] = system: nocifensive behaviors; conditions: 20% ethanol 1.6 gm/kg 3 times a day for 3 days; current 2, 5 and 10 mA; vs saline TNBS rats; P<0.001
# Experimental: Increasing amounts of electrical current were applied to the pancreas through a previously implanted electrode and the total number of nocifensive behaviors was recorded.
# Control TNBS rats received an equal volume of normal saline. The next day the rats were tested for their behavioral response for pain by administering successive application of electrical current at 2, 5 and 10 mA for 5 minutes through a pair of electrodes implanted in the pancreas at the time of TNBS administration.
# [7] = system: gastropancreatic nerves
# Experimental: Capsaicin dose was 0.05 mg/0.3 ml in 40% ethanol for each group (n=8 rats/group).
# Transient receptor potential vanilloid type-1 activation on the gastric side of gastropancreatic nerves can trigger axonal reflexes. Based on the known interaction between alcohol and transient receptor potential vanilloid type-1, it is possible that intragastric ethanol might also stimulate these nerves. […] At the same time, there was an intra-pancreatic canula in place and recording electrodes positioned around nerve fibers in the greater splanchnic nerve that were responsive to mechanical stimulation of the pancreas. Five minutes after intragastric ethanol, capsaicin was infused into the pancreatic duct.
# [8] = system: TRPV1; conditions: various tissues, capsazepine-sensitive; cited from earlier work
# [9] = molecular target: T1, TRPV1; conditions: in vitro, cited from earlier work
# [10] = system: guinea pig airways; conditions: intravenous 221 mg/kg or intragastric 790 mg/kg; capsazepine-sensitive; cited from earlier work
# [11] = system: gastric emptying; assay: Gastric emptying of solid foods after local instillation; type: in vivo, rat; conditions: 100 nM/kg, vs control
# Experimental: These experiments were done in male rats. Resiniferatoxin was instilled at 100 nM/kg body weight, 0.6 microgm/ml, into either the stomach or jejunum. Controls received saline in the stomach. Five weeks later gastric emptying of solid foods was measured. […] The combination of faster emptying and anti-nauseant effect makes it a very appropriate treatment for gastroparesis.
# [12] = system: gastropancreatic nerves; assay: Afferent nerve signaling to colorectal distention after intragastric resiniferatoxin; type: in vivo; conditions: rat stomach, 4 hours after intragastric resiniferatoxin vs baseline
# Experimental: The top row represents the baseline response. Note the near complete absence of responses 4 hours after intragastric resiniferatoxin.
# Resiniferatoxin is the principal active ingredient in the classic drug Euphorbium, the air-dried latex (resin) of the cactus-like plant Euphorbia resinifera. It is an ultra-potent analog of capsaicin and local application causes desensitization without prior excitation of afferent nerves that lasts for several weeks (Neubert et al, 2003; Kissin et al, 2002; Xu et al, 1997; Craft et al, 1995; Avelino et al, 1999; Acs et al, 1997; Abdel-Salam et al, 1994).
# [13] = system: afferent nerves; conditions: desensitization of afferent nerves; cited from earlier work
# T1 sequence (O35433 whole entry): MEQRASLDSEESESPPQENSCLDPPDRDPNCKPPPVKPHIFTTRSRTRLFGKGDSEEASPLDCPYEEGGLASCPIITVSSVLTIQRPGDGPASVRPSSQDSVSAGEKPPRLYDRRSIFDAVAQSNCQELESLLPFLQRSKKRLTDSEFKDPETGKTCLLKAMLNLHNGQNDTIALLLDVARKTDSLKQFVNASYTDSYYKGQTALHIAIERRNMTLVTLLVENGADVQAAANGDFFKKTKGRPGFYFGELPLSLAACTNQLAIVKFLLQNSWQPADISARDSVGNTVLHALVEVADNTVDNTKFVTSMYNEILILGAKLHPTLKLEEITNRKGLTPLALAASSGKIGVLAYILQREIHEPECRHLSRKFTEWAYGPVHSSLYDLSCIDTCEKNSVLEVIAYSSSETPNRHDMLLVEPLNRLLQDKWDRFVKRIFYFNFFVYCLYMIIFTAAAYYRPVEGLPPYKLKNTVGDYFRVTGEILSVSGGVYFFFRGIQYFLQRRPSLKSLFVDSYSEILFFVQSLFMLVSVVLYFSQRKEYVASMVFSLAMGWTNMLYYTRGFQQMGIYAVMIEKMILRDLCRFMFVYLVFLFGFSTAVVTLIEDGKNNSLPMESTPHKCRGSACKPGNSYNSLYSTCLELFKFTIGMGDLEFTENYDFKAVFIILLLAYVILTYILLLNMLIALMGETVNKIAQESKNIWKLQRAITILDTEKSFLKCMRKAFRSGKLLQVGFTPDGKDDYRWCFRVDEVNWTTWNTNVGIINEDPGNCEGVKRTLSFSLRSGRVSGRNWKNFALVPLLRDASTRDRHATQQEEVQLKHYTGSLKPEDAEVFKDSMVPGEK
# T2 sequence (Q704Y3 whole entry): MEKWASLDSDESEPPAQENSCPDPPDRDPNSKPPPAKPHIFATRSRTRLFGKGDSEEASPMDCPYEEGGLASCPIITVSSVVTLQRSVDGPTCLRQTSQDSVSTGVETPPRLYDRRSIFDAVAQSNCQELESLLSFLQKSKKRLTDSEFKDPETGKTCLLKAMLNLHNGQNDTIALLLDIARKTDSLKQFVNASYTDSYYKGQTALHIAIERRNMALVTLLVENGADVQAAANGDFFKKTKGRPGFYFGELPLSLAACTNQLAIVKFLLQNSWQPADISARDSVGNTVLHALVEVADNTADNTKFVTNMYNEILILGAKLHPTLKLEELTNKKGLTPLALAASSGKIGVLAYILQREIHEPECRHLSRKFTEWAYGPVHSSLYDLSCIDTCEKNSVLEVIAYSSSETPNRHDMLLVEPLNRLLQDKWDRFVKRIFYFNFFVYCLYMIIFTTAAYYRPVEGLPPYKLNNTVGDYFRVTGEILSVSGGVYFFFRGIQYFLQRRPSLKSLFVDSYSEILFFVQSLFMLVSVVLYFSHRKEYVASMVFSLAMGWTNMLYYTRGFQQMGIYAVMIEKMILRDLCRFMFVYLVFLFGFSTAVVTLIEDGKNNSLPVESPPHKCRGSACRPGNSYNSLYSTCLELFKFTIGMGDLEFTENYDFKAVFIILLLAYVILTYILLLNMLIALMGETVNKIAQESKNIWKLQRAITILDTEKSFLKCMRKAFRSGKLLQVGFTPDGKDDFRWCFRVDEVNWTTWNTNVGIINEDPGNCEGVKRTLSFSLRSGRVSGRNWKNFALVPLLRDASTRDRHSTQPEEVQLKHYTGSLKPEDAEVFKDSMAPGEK
smiles,measurement,setting,value
COc1cccc(NC(=O)/C=C/c2ccc(Cl)cc2)c1 [SB-366791],pancreatic pain behavioral response,[1],markedly reduced
COc1cc(CNC(=O)CCCC/C=C/C(C)C)ccc1O [capsaicin],acute experimental pancreatitis,[2],significant attenuation
same,pancreatic edema (water content),[3],causes pancreatic edema
Oc1cc2c(cc1O)CN(C(=S)NCCc1ccc(Cl)cc1)CCC2 [capsazepine],NK1R endocytosis in acinar cells (surrogate marker for SP release),[4]; cerulein-induced pancreatitis,reduction
same,cerulein induced pancreatitis,[4],attenuate
CCO [ethanol],contractions of bronchi,[5],caused contractions
same,number of nocifensive behaviors,[6],increased the number of nocifensive behaviors significantly
same,multi-unit spike potentials after intra-pancreatic capsaicin,"[7]; intragastric ethanol five minutes before capsaicin into pancreatic duct, vs intragastric saline, P<0.05, n=8 rats/group",significant increase
same,"gastropancreatic nerve activity, ethanol by itself","[7]; intragastric via orogastric lavage after pyloric ligation, before capsaicin",did not increase
same,release of substance P,[8],induce the release
same,"TRPV1 stimulation, capsazepine-sensitive calcium response",[9]; trigeminal and dorsal root ganglia neurons,directly stimulate
same,sensitization of dorsal root ganglia neurons to the effects of capsaicin,[9],sensitize
same,broncho-constriction,[10],caused broncho-constriction
same,plasma extravasation in the airways,[10],increased plasma extravasation
C=C(C)[C@]12C[C@@H](C)[C@@]34O[C@](Cc5ccccc5)(O[C@@H]1[C@@H]3C=C(COC(=O)Cc1ccc(O)c(OC)c1)C[C@]1(O)C(=O)C(C)=C[C@@H]41)O2 [resiniferatoxin],percentage of gastric emptying after 3 hours,"[11]; instilled into the jejunum five weeks prior, P=0.04, n=4",significant increase
same,percentage of gastric emptying after 3 hours,"[11]; instilled into the stomach five weeks prior, P=0.01, n=4 rats",significant increase
same,afferent nerve signaling to colorectal distention,[12],near complete attenuation; also recorded: nearly complete attenuation
same,potency relative to capsaicin,[13],200 times
same,acute experimental pancreatitis,[2],significant attenuation

# Source: patent publication US20100204313A1, “Modulation of nerve pain activity by resiniferatoxin and uses thereof” (priority 2007, published 2010)
